Assay results taken from article PMC3827683 (Journal of the American Chemical Society, 2013).
Blank lines part the entries; values can stand above or below the compound they belong to.

What was measured:
Test in all cases: direct UV assay of deamination
Assay type in all cases: biochemical
Details in all cases: 20 mM HEPES pH 7.5, 30 °C
[1] = target: T1, Avi5431 (Gillisella ampelina, UniProt B9K107)
T1 sequence (B9K107 1-466): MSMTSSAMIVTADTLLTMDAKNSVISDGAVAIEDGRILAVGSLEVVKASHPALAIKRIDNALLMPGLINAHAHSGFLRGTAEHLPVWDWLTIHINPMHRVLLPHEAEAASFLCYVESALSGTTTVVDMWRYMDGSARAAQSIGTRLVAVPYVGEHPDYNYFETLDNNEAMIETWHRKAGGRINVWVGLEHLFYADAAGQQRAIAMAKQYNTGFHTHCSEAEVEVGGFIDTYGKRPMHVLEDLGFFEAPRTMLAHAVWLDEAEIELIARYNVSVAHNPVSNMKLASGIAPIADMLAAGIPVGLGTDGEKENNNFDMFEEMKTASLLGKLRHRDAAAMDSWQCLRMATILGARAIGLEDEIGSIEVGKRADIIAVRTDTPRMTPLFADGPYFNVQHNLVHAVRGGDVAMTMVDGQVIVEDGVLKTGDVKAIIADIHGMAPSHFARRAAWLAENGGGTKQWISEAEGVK

[2] = target: T1, Avi5431; remark: listed apart in the source
[3] = target: T2, Tvn0515 (Thermoplasma volcanium, UniProt Q97BE1)
T2 sequence (Q97BE1 1-418): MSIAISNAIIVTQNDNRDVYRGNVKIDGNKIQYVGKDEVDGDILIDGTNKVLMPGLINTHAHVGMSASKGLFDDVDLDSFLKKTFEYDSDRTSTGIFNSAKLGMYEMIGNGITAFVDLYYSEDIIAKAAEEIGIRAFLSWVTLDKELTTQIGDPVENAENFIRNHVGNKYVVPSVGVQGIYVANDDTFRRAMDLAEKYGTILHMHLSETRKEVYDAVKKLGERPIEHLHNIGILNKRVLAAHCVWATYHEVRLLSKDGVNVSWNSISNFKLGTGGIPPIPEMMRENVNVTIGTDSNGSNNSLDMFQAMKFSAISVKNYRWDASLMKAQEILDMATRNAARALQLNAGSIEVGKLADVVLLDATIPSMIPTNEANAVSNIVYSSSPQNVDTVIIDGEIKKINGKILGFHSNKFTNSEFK

Structure (SMILES): Nc1nc(O)nc2[nH]cnc12 [2-oxoadenine]
- direct UV assay of deamination (294 nm) [1]: Avi5431 deaminated two adenine related compounds, 8-oxoadenine and 2-oxoadenine

Structure (SMILES): Nc1ncnc2[nH]c(=O)[nH]c12 [8-oxoadenine]
- direct UV assay of deamination (272 nm) [2]: Avi5431 deaminated two adenine related compounds, 8-oxoadenine and 2-oxoadenine

- Km [3]: Tvn0515 (sg-11) deaminates only SAH
Structure (SMILES): Nc1ncnc2c1ncn2[C@@H]1O[C@H](CSCC[C@H](N)C(=O)O)[C@@H](O)[C@H]1O [SAH]
